In ChEMBL document CHEMBL5131493, “Synthesis and evaluation of RNase L-binding 2-aminothiophenes as anticancer agents” (Bioorg Med Chem, 2022) one finds ΔTm, inhibition and IC50 data, which are given here for 30 molecules.

One assay is filed under the species Homo sapiens. The experiment in a line: Binding affinity to RNase L (unknown origin) expressed in Escherichia coli BL21 (DE3) assessed as thermal stability by measuring melting temperature at 60 uM incubated for 50 mins by NanoDSF analysis. Background: In DSF a fluorescence change marks the thermal transition of the protein.
The test system of assay [1] is A549. The experiment in a line: Antiproliferative activity against human A549 cells assessed as cell growth inhibition at 10 uM incubated for 72 hrs by MTT assay relative to control. It counts as functional. A general note: Tetrazolium assays rely on reduction of a dye to a coloured formazan, in cell work by metabolically active cells.
Assay [2] relates to A549. Kind of assay: Antiproliferative activity against human A549 cells assessed as cell growth inhibition incubated for 72 hrs by MTT assay. It counts as functional, cell-based. Particulars: A549, 72 h.
The subject of assay [3] is JAR. The experiment in a line: Antiproliferative activity against human JAR cells assessed as cell growth inhibition at 10 uM incubated for 72 hrs by MTT assay relative to control. It counts as functional.
Assay [4] has as its system JAR. Kind of assay: Antiproliferative activity against human JAR cells assessed as cell growth inhibition incubated for 72 hrs by MTT assay. It counts as functional, cell-based.
For assay [5], the system named is K562. The experiment in a line: Antiproliferative activity against human K562 cells assessed as cell growth inhibition incubated for 72 hrs by MTT assay. Particulars: K562, 72 h. The assay is classed as functional, cell-based.
The test system of another assay is MCF7. Kind of assay: Antiproliferative activity against human MCF7 cells assessed as cell growth inhibition at 10 uM incubated for 72 hrs by MTT assay relative to control. The assay is classed as functional.
Assay [6] has as its system K562. Kind of assay: Antiproliferative activity against human K562 cells assessed as cell growth inhibition at 10 uM incubated for 72 hrs by MTT assay relative to control. It counts as functional.

Where only a bound is given, the exact number is not on record here.

A word on the ΔTm: it is the shift of the melting midpoint relative to a reference. The term inhibition denotes the change of the read-out against control, counted positive when it falls. `CCOC(=O)C1=C(Nc2ccccc2)S/C(=C\c2ccc(OC)c(O)c2)C1=O`: the ΔTm in the assay listed under Homo sapiens turned out to be 0.6 °C. For the same molecule, the inhibition at 10 µM with A549 [1] was 11%.

Usually IC50 stands for the midpoint of a concentration-inhibition curve. Regarding `CCOC(=O)C1=C(Nc2ccccc2)S/C(=C\c2cc(OC)c(O)c(OC)c2)C1=O`, the IC50 with A549 [2] was 19.2 µM; with JAR [4], 17.4 µM; in the assay on K562 [5] it was 31.7 µM. For the same molecule, the inhibition at 10 µM came to 57.5% in the assay with JAR [3], 19.2% in the assay on A549 [1] and 12.9% with MCF7.

On to `CCOC(=O)C1=C(Nc2ccc(OC)c(OC)c2)S/C(=C\c2ccc[nH]2)C1=O`, for which the inhibition at 10 µM in the assay on JAR [3] worked out at 47.9%.

With `CCOC(=O)C1=C(Nc2ccccc2)SC(=C2CCN(C)CC2)C1=O`, the inhibition at 10 µM in the assay with JAR [3], in the assay on A549 [1] and with MCF7 was below 10% throughout.

`CCOC(=O)C1=C(Nc2ccc([N+](=O)[O-])cc2)S/C(=C\c2ccc[nH]2)C1=O`: the inhibition at 10 µM in the assay on JAR [3] was determined as 54.9%. Besides, the IC50 with JAR [4] is 15.6 µM; with K562 [5], above 100 µM.

Turning to `CCOC(=O)C1=C(Nc2ccccc2)S/C(=C\c2c[nH]c3ccccc23)C1=O`, the inhibition at 10 µM is 57.6% with JAR [3], 19.8% with A549 [1] and 25% in the assay on MCF7. Further, the IC50 is 14.1 µM with JAR [4] and above 100 µM in the assay with K562 [5].

Turning to `CCOC(=O)C1=C(Nc2ccccc2)SC(=C2CCCCC2)C1=O`, the inhibition at 10 µM in the assay with JAR [3] turned out to be 15.5%; in the assay with K562 [6] it was 18.7%. In the assay filed under Homo sapiens, the thermal shift (ΔTm) was 0.7 °C.

As for `CCOC(=O)C1=C(Nc2cccc(F)c2)S/C(=C\c2ccc[nH]2)C1=O`, the figures for the inhibition at 10 µM with JAR [3], in the assay with A549 [1] and in the assay on MCF7 were 45.4%, below 10% and below 10%, respectively. Also, the IC50 with JAR [4] was 22.6 µM; with K562 [5], above 100 µM.

Regarding `CCOC(=O)C1=C(Nc2ccccc2)S/C(=C\c2ccc([N+](=O)[O-])c(O)c2)C1=O`, the IC50 in the assay on A549 [2] came to 19.1 µM; in the assay with JAR [4] it was 12.7 µM; in the assay with K562 [5], 12.7 µM. Also, the values for the inhibition at 10 µM with JAR [3] and in the assay with MCF7 were 51.2% and 41.5%, respectively.

On to `CCOC(=O)C1=C(Nc2ccccc2)S/C(=C\c2ccccc2)C1=O`, for which the inhibition at 10 µM was 20.3% in the assay with JAR [3], 42.9% with K562 [6], 29.6% in the assay with A549 [1] and 23.6% with MCF7. In the assay listed under Homo sapiens, the ΔTm worked out at 0.8 °C.

In the case of `CCOC(=O)C1=C(Nc2ccccc2)S/C(=C\c2cc3ncccc3[nH]2)C1=O`, the values for the IC50 in the assay on A549 [2], in the assay on JAR [4] and in the assay with K562 [5] were 13.6 µM, 9.6 µM and 6.6 µM, respectively. For the same molecule, the inhibition at 10 µM with JAR [3] turned out to be 74.8%; in the assay on MCF7, 42.2%.

Turning to `CCOC(=O)C1=C(Nc2ccccc2)S/C(=C\c2cccc(O)c2)C1=O`, the inhibition at 10 µM with JAR [3] came to 51.9%; with A549 [1], 30.6%; in the assay with MCF7, 24.1%. Besides, the IC50 worked out at 17 µM in the assay with JAR [4] and 38.7 µM in the assay on K562 [5]. In addition, the ΔTm in the assay filed under Homo sapiens was determined as 0.5 °C.

As for `CCOC(=O)C1=C(Nc2ccccc2)S/C(=C\c2cc3ccncc3[nH]2)C1=O`, the inhibition at 10 µM was 26.3% in the assay with JAR [3], 22.8% in the assay on K562 [6], 17.1% with A549 [1] and 18.2% in the assay on MCF7.

On to `CCOC(=O)C1=C(Nc2ccc(C)cc2)S/C(=C\c2ccc[nH]2)C1=O`, for which the results for the inhibition at 10 µM in the assay with JAR [3], with A549 [1] and in the assay with MCF7 were below 10%, 20.9% and below 10%, respectively.

In the case of `CCOC(=O)C1=C(Nc2ccccc2)S/C(=C\c2ccc(Br)c(O)c2)C1=O`, the inhibition at 10 µM in the assay with JAR [3] was 39.8%; in the assay on K562 [6], 22%; in the assay with A549 [1], 13.6%; in the assay on MCF7, 16.4%.

For the molecule `CCOC(=O)C1=C(Nc2ccccc2)S/C(=C\c2cccc(C(=O)O)c2)C1=O`, the inhibition at 10 µM in the assay on JAR [3] is 50.6%; with A549 [1], below 10%; with MCF7, below 10%. In addition, the values for the IC50 with JAR [4] and in the assay with K562 [5] were 11.7 µM and 16.2 µM, respectively.

`CCOC(=O)C1=C(Nc2ccccc2)S/C(=C\c2cc3cnccc3[nH]2)C1=O`: the inhibition at 10 µM in the assay with JAR [3] was below 10%.

With `CCOC(=O)C1=C(Nc2ccccc2)S/C(=C2\CCN(C(=O)OC(C)(C)C)C2)C1=O`, the IC50 in the assay on A549 [2] came out at 47 µM; in the assay on JAR [4], 37 µM; in the assay on K562 [5], 11.6 µM. Moreover, in the assay listed under Homo sapiens, the ΔTm is 0.5 °C. Moreover, the inhibition at 10 µM in the assay on MCF7 was 33.8%.

On to `CCOC(=O)C1=C(Nc2ccc(C(F)(F)F)cc2)S/C(=C\c2ccc[nH]2)C1=O`, for which the inhibition at 10 µM in the assay with JAR [3] was determined as 38.5%; with A549 [1], 30.1%; in the assay on MCF7 it was 19.1%. Also, the IC50 with JAR [4] is 46.8 µM.

With `CCOC(=O)C1=C(Nc2ccccc2)S/C(=C\c2cc3cccnc3[nH]2)C1=O`, the results for the inhibition at 10 µM in the assay with JAR [3], with A549 [1] and in the assay on MCF7 were 54.3%, 16.7% and 18.2%, respectively. Also, the IC50 was 14.4 µM in the assay on JAR [4] and above 100 µM in the assay on K562 [5].

In the case of `CCOC(=O)C1=C(Nc2ccc(CC)cc2)S/C(=C\c2ccc[nH]2)C1=O`, the values for the inhibition at 10 µM in the assay with JAR [3] and in the assay on A549 [1] were below 10% and 17.5%, respectively.

In the case of `CCOC(=O)C1=C(Nc2ccccc2)S/C(=C\c2ccc(OC)cc2)C1=O`, the inhibition at 10 µM is 32.9% in the assay on JAR [3], 9.6% in the assay on K562 [6], 17.5% in the assay with A549 [1] and 14.7% with MCF7.

Turning to `CCOC(=O)C1=C(Nc2ccc(OC)cc2)S/C(=C\c2ccc[nH]2)C1=O`, the inhibition at 10 µM in the assay with JAR [3] is 27.6%; in the assay with A549 [1], below 10%; in the assay on MCF7 it was below 10%.

Consider `CCOC(=O)C1=C(Nc2ccccc2)S/C(=C\c2ccc(C(=O)O)cc2)C1=O`, for which the inhibition at 10 µM in the assay with JAR [3] was 16.8%; in the assay on K562 [6], 27.5%; in the assay on A549 [1], 11.6%; with MCF7 it was below 10%.

In the case of `CCOC(=O)C1=C(Nc2ccccc2)SC(=C2CN(C(=O)OC(C)(C)C)C2)C1=O`, the IC50 with A549 [2] is 35.8 µM; in the assay on JAR [4], 23.2 µM; in the assay on K562 [5], 10.7 µM. In the assay listed under Homo sapiens, the ΔTm turned out to be 0.5 °C. Also, the inhibition at 10 µM with MCF7 is 29.6%.

For `CCOC(=O)C1=C(Nc2ccccc2)S/C(=C\c2cc[nH]c2)C1=O`, the inhibition at 10 µM was 19.5% with JAR [3], 18.9% in the assay with K562 [6], below 10% in the assay on A549 [1] and below 10% with MCF7.

For `CCOC(=O)C1=C(Nc2ccc(Br)cc2)S/C(=C\c2ccc[nH]2)C1=O`, the inhibition at 10 µM in the assay with JAR [3] is 41.5%; with K562 [6] it was 17%; in the assay with A549 [1] it was below 10%; with MCF7 it was below 10%. Further, in the assay on JAR [4], the IC50 stood at 27 µM.

As for `CCOC(=O)C1=C(Nc2ccc(F)cc2)S/C(=C\c2ccc[nH]2)C1=O`, the inhibition at 10 µM in the assay with JAR [3] was 61.5%; in the assay on A549 [1], below 10%; in the assay on MCF7 it was below 10%. Further, the IC50 in the assay with JAR [4] is 15.9 µM; in the assay on K562 [5], above 100 µM.

As to `CCOC(=O)C1=C(Nc2cccc(C(F)(F)F)c2)S/C(=C\c2ccc[nH]2)C1=O`, the inhibition at 10 µM in the assay on JAR [3] amounted to 52.9%; in the assay on A549 [1], 22.8%; in the assay on MCF7, 22.9%. In addition, the figures for the IC50 in the assay with JAR [4] and in the assay on K562 [5] were 19.7 µM and above 100 µM, respectively.

With `CN1CCN(c2cc3c(cc2[N+](=O)[O-])-c2c(cnn2-c2ccc(C(=O)O)cc2)C(C)(C)O3)CC1`, the IC50 in the assay on A549 [2] is above 100 µM; with JAR [4] it was 9.3 µM; with K562 [5], 16.5 µM. Also, the inhibition at 10 µM in the assay on JAR [3] was found to be 53.5%.
